Reference: patent publication US4346078A, “Novel anticoagulant agmatine derivatives and process for the preparation thereof” (Richter Gedeon Vegyeszeti Gyar Rt., priority 1980, dated 1982)
One block for each compound: values may come before it. Where a SMILES comes first, the peptide text is derived from it. [ ]: non-standard residue; d: D form. The star is where a group is joined. dPhg = N[C@@H](C(=O)O)c1ccccc1; Agmatine = N=C(N)NCCCCN*; Bn = c1ccc(C*)cc1

Key:
[1] = target: T1, Human Thrombin (Homo sapiens, UniProt P00734); assay: Relative thrombin-time in isolated fibrinogen-thrombin reaction mixture A; format: biochemical; details: system A, without inhibitor = 1
T1 construct: 0.1 ml US Standard Human Thrombin 5 NIH Unit/ml
Description: (§1) In in vitro trials the effect of D-Phe-Pro-Agm.2HCl (in formula I, X is a D-phenylalanine moiety, B is chloride ion and n=2) and heparin was studied in an isolated system, in a fibrinogen-thrombin reaction mixture A and in human citrate plasma B:
0.2 ml of 0.5 percent bovine fibrinogen in 0.9 percent saline solution,
0.1 ml US Standard Human Thrombin 10 NIH Unit/ml.

[2] = target: T1, Human Thrombin; assay: Relative thrombin-time in human citrate plasma B; format: biochemical; details: system B human citrate plasma, without inhibitor = 1
Description: as §1
0.2 ml of human citrate plasma
0.1 ml US Standard Human Thrombin 10 NIH U/ml.

[3] = system: gray rabbits; assay: In vivo prothrombin activity of the blood assayed according to Quick; set-up: species or system rabbit
Description: In in vivo trials gray rabbits (2 to 3 kg) were administered subcutaneously:
b. 10 mg/kg D-Phe-Pro-Agm.2HCl, or
c. 5 mg/kg heparin and 10 mg/kg D-Phe-Pro-Agm.2HCl.

[4] = target: T1, Human Thrombin; assay: Fibrinogen-thrombin reaction: amount required to double the thrombin time of fibrinogen; format: biochemical; details: for Amount of agmatine derivative required to double the thrombin-time of fibrinogen: bovine fibrinogen, human thrombin 5 NIH Unit/ml, pH 7.4, thrombin time without derivative 15 seconds; for relative activity: related to tosyl-agmatine, taken as unity
Excerpt: It is known that the simple acyl derivatives of agmatine (1-amino-4-guanidino-butane), as for instance tosyl-agmatine (1-[p-toluene-sulfonylamido]-4-guanidino-butane), have the ability to inhibit the proteolytic reactions of both tripsin and thrombin (Lorand and Rule: Nature, 190, 722, 1961; Rule and Lorand: Biochim. Biophys. Acta, 81, 130, 1964). According to these authors tosyl-agmatine delays the clotting of blood plasma, and also is assumed to suppress the fibrinogen-thrombin reaction. In our own experiments, however, the fibrinogen-thrombin reaction was affected by tosyl-agmatine to a negligible degree: 0.7 mg of tosyl-agmatine is required to double (from 15 sec to 30 sec) the thrombin time of 1 ml of a solution containing 1.25 mg of fibrinogen and 1.25 NIH units of thrombin ("Minimum Requirements of Dried Thrombin", 2nd rev. Div. Biol. Conf. Natl. Inst. Health, Bethesda, Md., United States 1946).
The potency of the substances is defined by the amount of the compound required to double the thrombin time of fibrinogen. Furthermore, the relative potency of the novel agmatine derivatives related to tosyl-agmatine (the activity of the last-mentioned drug is taken as unity) is listed, too.
The potency of the compounds was assayed in the following system:
0.2 ml of 0.5 percent bovine fibrinogen in 0.9 percent NaCl solution,
0.1 ml of tris-(hydroxymethyl)-methylamine hydrochloride buffer solution (pH=7.4) containing the agmatine derivative, and
0.1 ml US Standard Human Thrombin 5 NIH Unit/ml.
The thrombin time of the system devoid of agmatine derivative is 15 seconds.

[5] = heparin 0.05 μg/ml reaction mixture
[6] = heparin 0.10 μg/ml reaction mixture
[7] = heparin 0.20 μg/ml reaction mixture
[8] = D-Phe-Pro-Agm.2HCl 0.10 μg/ml reaction mixture

Relative thrombin-time, alone [1, 5]: 1.1
Relative thrombin-time, alone [1, 6]: 1.5
Relative thrombin-time, alone [1, 7]: 2.0
Relative thrombin-time, alone [2, 5]: 1.0
Relative thrombin-time, alone [2, 6]: 2.0
Relative thrombin-time, alone [2, 7]: 3.8
Compound: Heparin
prothrombin activity of the blood ([3]; 5 mg/kg heparin subcutaneously): practically unaltered

Compound: ClOCl.N=C(N)NCCCCNC(=O)[C@@H]1CCCN1C(=O)[C@H](N)COCc1ccccc1 [H--D--Ser(Bzl)--Pro--Agm, O-Benzyl-D-seryl-L-prolyl-agmatine-dichlorohydrate] (H-[dS](Bn)-Pro-Agmatine)
Amount of agmatine derivative required to double the thrombin-time of fibrinogen [4]: 0.7 μ/reaction mixture
relative activity [4]: 400

Relative thrombin-time, alone [1, 8]: 2.5
Relative thrombin-time, alone ([1]; D-Phe-Pro-Agm.2HCl 0.20 μg/ml reaction mixture): 4.0
Relative thrombin-time, alone ([2]; D-Phe-Pro-Agm.2HCl 0.05 μg/ml reaction mixture): 2.2
Relative thrombin-time, alone [2, 8]: 3.4
anticoagulant potency (in words) [4]: extremely high activity
Amount of agmatine derivative required to double the thrombin-time of fibrinogen [4]: 0.12 μ/reaction mixture
relative activity [4]: 2333
Compound: ClOCl.N=C(N)NCCCCNC(=O)[C@@H]1CCCN1C(=O)[C@H](N)Cc1ccccc1 [H--D--Phe--Pro--Agm, D-Phenylalanyl-L-prolyl-agmatine-dichlorohydrate] (H-[dF]-Pro-Agmatine)
prothrombin activity of the blood ([3]; 10 mg/kg D-Phe-Pro-Agm.2HCl subcutaneously): practically unaltered

Compound: ClOCl.N=C(N)NCCCCNC(=O)[C@@H]1CCCN1C(=O)[C@H](N)c1ccccc1 [H--D--Phg--Pro--Agm, D-Phenylglycyl-L-prolyl-agmatine-dichlorohydrate] (H-[dPhg]-Pro-Agmatine)
Amount of agmatine derivative required to double the thrombin-time of fibrinogen [4]: 1.4 μ/reaction mixture
relative activity [4]: 200

Compound: Cc1ccc(S(=O)(=O)NCCCCNC(=N)N)cc1 [Tosyl--agmatine, 1-[p-toluene-sulfonylamido]-4-guanidino-butane, reference compound]
amount required to double (from 15 sec to 30 sec) the thrombin time ([4]; 1 ml of a solution containing 1.25 mg of fibrinogen and 1.25 NIH units of thrombin): 0.7 mg
Amount of agmatine derivative required to double the thrombin-time of fibrinogen [4]: 280 μ/reaction mixture
relative activity [4]: 1
